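Protocol summary: plate cells (96-well), add compound at 5 concentrations, incubate 48 h, interpolate endpoints linearly. TGI: concentration producing complete growth inhibition.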 Where only a bound is given, the exact number is not on record here.

Test systems include IGROV1 ovarian; OVCAR-5 ovarian; SR leukemia; A498 renal; KM12 colon; DU-145 prostate; SK-MEL-28 melanoma; HCT-116 colon; SNB-19 CNS; PC-3 prostate.
Holding throughout (experiment): NCI tumour cell line growth inhibition, 48 h

Take `CC(C)[C@H](NC(=O)OCc1ccccc1)C(=O)N[C@H](/C=C/C(=O)OC(C)(C)C)CO`: the TGI with IGROV1 ovarian, with OVCAR-5 ovarian, with SR leukemia, in the assay with A498 renal, in the assay with KM12 colon and in the assay with DU-145 prostate was over 100 µM each time. For the same compound, the TGI in the assay on SK-MEL-28 melanoma, in the assay on HCT-116 colon, with SNB-19 CNS and in the assay on PC-3 prostate was over 100 µM in each case.

Regarding `O=C1c2sccc2C(=O)c2c(CO)csc21`, the TGI in the assay on IGROV1 ovarian is 17.7 µM; in the assay on OVCAR-5 ovarian, over 53 µM; in the assay with SR leukemia, over 73.2 µM; in the assay with A498 renal, 31.8 µM; with KM12 colon it was 31.5 µM; with DU-145 prostate, 9.37 µM. In addition, the TGI is 38.3 µM with SK-MEL-28 melanoma, 9.47 µM with HCT-116 colon, 20.8 µM in the assay on SNB-19 CNS and over 32.8 µM in the assay on PC-3 prostate.

`CNC(=O)N(C)C(=O)c1ccccc1C(=O)N(C)C(=O)NC`: the TGI with IGROV1 ovarian, with OVCAR-5 ovarian, in the assay on SR leukemia, with A498 renal, in the assay on KM12 colon and in the assay on DU-145 prostate was over 10 µM throughout. Further, the TGI with SK-MEL-28 melanoma, with HCT-116 colon, with SNB-19 CNS and in the assay on PC-3 prostate was over 10 µM each time.

`CCOC(=O)C(NC(=O)c1cccc(Cl)c1)(N1CCN(c2cc3c(cc2F)c(=O)c(C(=O)O)cn3CC)CC1)C(F)(F)F` (stereo not given): the TGI in the assay on IGROV1 ovarian amounted to 47.6 µM; with OVCAR-5 ovarian, 33 µM; with SR leukemia it was 52.2 µM; in the assay with A498 renal, 51 µM; with KM12 colon, 25.2 µM; in the assay on DU-145 prostate, 88.3 µM. For the same compound, the TGI with SK-MEL-28 melanoma is 33.9 µM; with HCT-116 colon, 27.6 µM; in the assay with SNB-19 CNS, over 100 µM; in the assay on PC-3 prostate, 35.1 µM.

For `CC(C)S1=C2C(=O)CC(C)(C)CC2=Nc2ccccc21` (stereo not given), the TGI in the assay with IGROV1 ovarian, in the assay with OVCAR-5 ovarian, in the assay with SR leukemia, with A498 renal, in the assay on KM12 colon and in the assay on DU-145 prostate was over 100 µM each time. The TGI with SK-MEL-28 melanoma, with HCT-116 colon, in the assay with SNB-19 CNS and with PC-3 prostate was over 100 µM throughout.

Take `CN1Cc2c(ccc3c2OCO3)[C@@H]2[C@H](O)Cc3cc4c(cc3[C@@H]21)OCO4`: the TGI with IGROV1 ovarian is over 100 µM; in the assay with OVCAR-5 ovarian, over 100 µM; in the assay on SR leukemia, over 100 µM; in the assay on A498 renal it was 6.07 µM; with KM12 colon, 12.4 µM; with DU-145 prostate, over 30.6 µM. Moreover, the TGI was over 100 µM with SK-MEL-28 melanoma, over 44.7 µM in the assay on HCT-116 colon, over 26.5 µM with SNB-19 CNS and over 100 µM in the assay on PC-3 prostate.

On to `C(/Cc1ccc2c(c1)OCO2)=N\NC1=NCCCCN1`, for which the TGI is over 100 µM in the assay with IGROV1 ovarian; over 100 µM with OVCAR-5 ovarian; over 100 µM in the assay with SR leukemia; 91.4 µM in the assay on A498 renal; over 100 µM in the assay on KM12 colon; over 100 µM in the assay on DU-145 prostate. The TGI in the assay on SK-MEL-28 melanoma, in the assay on HCT-116 colon, in the assay on SNB-19 CNS and in the assay on PC-3 prostate was over 100 µM each time.

Take `COc1ccc(N=C(SSC(=Nc2ccc(OC)cc2)c2ccc([N+](=O)[O-])o2)c2ccc([N+](=O)[O-])o2)cc1`: the TGI in the assay on IGROV1 ovarian is 4.2 µM; in the assay on OVCAR-5 ovarian, 5.01 µM; in the assay on SR leukemia, over 21.7 µM; in the assay with A498 renal, 25.8 µM; in the assay with KM12 colon, 2.79 µM; in the assay with DU-145 prostate, 2.92 µM. Moreover, the TGI with SK-MEL-28 melanoma was over 19.7 µM; in the assay on HCT-116 colon, 3.49 µM; with SNB-19 CNS, 3.26 µM; with PC-3 prostate, 2.94 µM.

Regarding `CCN(CC)CCCNc1nnc(C)c2[nH]c3ccccc3c12`, the TGI is 44.3 µM in the assay with IGROV1 ovarian; 61.3 µM in the assay with OVCAR-5 ovarian; 32.6 µM in the assay with SR leukemia; 43.1 µM with A498 renal; over 100 µM in the assay with KM12 colon; 59.9 µM in the assay on DU-145 prostate. The TGI is 40.6 µM in the assay with SK-MEL-28 melanoma, 69.4 µM with HCT-116 colon, over 100 µM with SNB-19 CNS and 45.2 µM in the assay with PC-3 prostate.

Take `CCOC(=O)c1c(SCCN(CC)CC)n(-c2ccccc2)c(=S)n(-c2ccccc2)c1=O`: the TGI is 13.2 µM in the assay on IGROV1 ovarian; over 57.6 µM with OVCAR-5 ovarian; 2.6 µM in the assay on SR leukemia; 29 µM in the assay with A498 renal; 28.5 µM in the assay on KM12 colon; 3.06 µM in the assay with DU-145 prostate. Moreover, the TGI came out at 11.9 µM with SK-MEL-28 melanoma, 8.13 µM in the assay with HCT-116 colon, 31.9 µM in the assay on SNB-19 CNS and 4.1 µM in the assay on PC-3 prostate.

For the compound `CCc1n[nH]c(=O)n1-c1ccncc1`, the TGI in the assay with IGROV1 ovarian, in the assay on OVCAR-5 ovarian, in the assay on SR leukemia, in the assay with A498 renal, in the assay on KM12 colon and with DU-145 prostate was over 100 µM throughout. Also, the TGI in the assay with SK-MEL-28 melanoma, in the assay on HCT-116 colon, in the assay on SNB-19 CNS and with PC-3 prostate was over 100 µM each time.

`Nn1c(=S)[nH]nc(/C=C/c2c(O)ccc3ccccc23)c1=O`: the TGI in the assay on IGROV1 ovarian is 5.56 µM; in the assay on OVCAR-5 ovarian it was 42.5 µM; in the assay with SR leukemia it was 87.1 µM; in the assay with A498 renal it was 69.9 µM; in the assay on KM12 colon, 59.5 µM; in the assay with DU-145 prostate, over 100 µM. Moreover, the TGI with SK-MEL-28 melanoma was 73.5 µM; in the assay on HCT-116 colon it was 12.5 µM; in the assay with SNB-19 CNS, over 100 µM; in the assay with PC-3 prostate, over 100 µM.

On to `Nc1nc2c(ccc3ccccc32)[nH]1`, for which the TGI with IGROV1 ovarian, with OVCAR-5 ovarian, in the assay on SR leukemia, in the assay with A498 renal, in the assay with KM12 colon and with DU-145 prostate was over 10 µM throughout. For the same compound, the TGI with SK-MEL-28 melanoma, with HCT-116 colon, in the assay with SNB-19 CNS and in the assay on PC-3 prostate was over 10 µM in each case.

The values are drawn from PubChem BioAssay (NCI).
